# Measured values from paper PMC5400099, “5-Hydroxyethyl-3-tetradecanoyltetramic acid represents a novel treatment for intravascular catheter infections due to Staphylococcus aureus” (Journal of Antimicrobial Chemotherapy, 2016).
# Values joined by “and” are separate entries in the source; they are usually repeats but may differ in a detail not shown here. Equal entries are not always repeated.
# Columns and labels:
# [1] = test system: S. aureus transmembrane potential; assay: Dissipation of bacterial membrane potential, DiSC3(5) fluorescence; format: cell-based, Staphylococcus aureus; conditions: 30 μM
# Protocol: Transmembrane potential was determined as described by Breeuwer and Abee[23] Staphylococcal cells were resuspended in potassium phosphate buffer (50 mM, pH 7) containing 5 μM of the cationic fluorescent dye DiSC3(5) (Invitrogen) and fluorescence determined (excitation 650 nm, emission 680 nm).
# S. aureus biofilms = assay: Biofilm susceptibility, resazurin-conversion assay on plasma-coated wells; format: cell-based, Staphylococcus aureus
# Protocol: (§1) Biofilms were formed as previously described to mimic in vivo conditions that promote formation of coagulase-mediated biofilms.[16] Briefly, microtitre plates or glass-bottom culture dishes (MaTek Co., USA) were coated with either 20% (v/v) or 100% (v/v) human plasma, respectively, and inoculated with S. aureus at an OD600 ∼0.2. After 1 h, non-adherent bacteria were aspirated, replaced with fresh RPMI-1640 and biofilms allowed to form over 24 h at 37 °C. Pre-formed biofilms were treated for 24 h with either 5HE-C14-TMA, C14-TOA or C14-TTA or a positive control [ethanol at 40% (v/v)]. Biofilm viability was measured by (i) resazurin-conversion assay (in microtitre wells), or (ii) live/dead imaging (glass-bottom dishes). Conversion of the non-fluorescent redox dye, resazurin into the fluorescent resorufin was performed as described previously.[16] A 44 μM resazurin (Sigma-Aldrich, UK) solution in RPMI-1640 was added to an equal biofilm volume and incubated for 1 h at 37 °C. Fluorescence (excitation 544 nm, emission 590 nm) was quantified using a Perkin Elmer 2030 Multilabel Reader Victor^TM X3. Biofilms were stained with SYTO9 Green (at 13.36 μM) and propidium iodide (at 80 μM) (Molecular Probes®) for 1 h prior to washing. Four representative images at ×40 and ×100 were obtained per experimental group, per experiment using a Zeiss LSM 510 META confocal microscope. Each experiment was repeated at least three times. Fluorescence intensity was quantified using Image J1 software (http://imagej.net/Welcome).
# [2] = test system: S. aureus USA300 and SH1000 biofilms; assay: Biofilm viability by live/dead imaging; format: cell-based, Staphylococcus aureus; conditions: 128 mg/L, 24 h, both strains (USA300 MRSA and SH1000 MSSA), live/dead staining
# Protocol: as §1, with “Four representative images at ×40 and ×100 were obtained per experimental group, per experiment using a Zeiss LSM 510 META confocal microscope. Each experiment was repeated at least three times.” left out
# [3] = MTT cell viability assay, HaCaT; format: cell-based, Human; conditions: human, HaCaT keratinocyte cells; HaCaT, MTT, 24 h
# Protocol: (§2) Human keratinocyte (HaCaT) cells were cultured in DMEM supplemented with 10% (v/v) FBS. Primary human umbilical vein endothelial cells (HUVECs) were cultured in EGM™-2 Bulletkit (Lonza) medium. HaCaT and HUVECs were harvested using TrypLE^TM Express (Gibco). Cells were seeded in microtitre plates at 3 × 10^5 cells/mL and incubated for 24 h at 37 °C with an antimicrobial compound ([…]) or Triton X100 at 1% (v/v). After removing the medium, cells were incubated with 500 mg/L MTT (Sigma-Aldrich) for 4 h. The crystals formed were solubilized with DMSO. Absorbance was recorded at 560 nm and the CC50 was determined.
# [4] = test system: Human keratinocyte (HaCaT) cells; assay: MTT cell viability assay, HaCaT; format: cell-based; conditions: HaCaT cells
# Protocol: as §2
smiles,measurement,setting,value
"CCCCCCCCCCCCCC(=O)C1=C(O)N[C@@H](CCO)C1=O [5HE-C14-TMA, 5-hydroxyethyl-3-tetradecanoyltetramic acid]",Membrane depolarization (DiSC3(5) fluorescence),[1],"increase in fluorescence, indicative of membrane depolarization"
same,Reduction of biofilm viability,"S. aureus biofilms; 1024 mg/L, 24 h treatment, depending on the strain, resazurin",7–20 fold
same,Concentration giving complete killing / eradication of S. aureus biofilms,S. aureus biofilms; MRSA and MSSA biofilms,512 to 1024 mg/L
same,Biofilm killing,[2],> 50%
same,CC50 at 24 h,[3],181 µM and 64 µg/mL
same,"Selectivity index (SI, CC50/MIC)",[4],32
